Test results as given in US20120076776A1, “METHOD FOR TREATING INFLAMATION BY LYMPHOCYTE DEPLETION OR SEQUESTERING” (priority 2010, published 2012).

What was measured:
[1] = tested on: renal transplant IRI; details: rat, in vivo; cited from earlier work
[2] = tested on: lung tissue neutrophils (MPO+); assay: MPO immunohistochemistry of lung tissue at necropsy; type: in vivo, Yorkshire (Sus scrofa domestica) swine; details: FTY720 0.3 mg/kg
Protocol: Immunohistochemical detection of MPO was performed on sections of formalin fixed, paraffin embedded blocks of swine lung. Antigen retrieval was performed using Proteinase K (DAKO, Carpenteria Calif.) for 30 minutes. Polyclonal rabbit, anti-human MPO (DAKO, Carpenteria Calif.) was used at a ready to use dilution and incubated at room temperature for 30 minutes. Envision, anti-rabbit (DAKO, Carpenteria Calif.) was applied as a secondary antibody for 30 minutes at room temperature. The chromogen applied was 3,3′ Diaminobenzidine (DAKO, Carpenteria, Calif.) for 10 minutes. The sections were counterstained with Hematoxylin (DAKO, Carpenteria, Calif.). External negative control was processed identically as with MPO but the primary antibody was substituted with normal rabbit serum. […] Cells with appropriate nuclear morphology and the presence of light to intensely reactive granules were counted; 5 random 40× fields were assessed.
Immunohistochemical detection of MPO was performed on sections of formalin fixed, paraffin embedded blocks of lung tissue. […] Polyclonal rabbit, anti-human MPO (DAKO, Carpenteria Calif.) was used at a ready to use dilution and incubated at room temperature for 30 minutes. […] Cells with appropriate nuclear morphology and the presence of light to intensely reactive granules were counted; 5 random 40× fields were assessed.

[3] = tested on: immune-related genes in liver tissue; assay: QRT-PCR gene transcript expression in liver tissue at necropsy; details: FTY720 n=7 vs control n=5
[4] = tested on: peripheral neutrophils; assay: Peripheral neutrophil counts during hemorrhage and reperfusion; type: in vivo, Yorkshire (Sus scrofa domestica) swine; details: FTY720 0.3 mg/kg; reperfusion period
Protocol: All functional laboratory assays were performed at 37° C., consistent with recorded normothermic animal temperatures (37.5±0.9° C.). Blood samples were collected at 0, 15, 30, 60, 90, and 120 minutes during the hemorrhage period and at 18, 24, 36, 48, and 72 hours during the survival period. Complete blood count with differentiation was performed with a cell counter (NDvia120 Hematology System, Siemens, Deerfield, Ill.).
Blood samples were collected at 0, 15, 30, 60, 90, and 120 minutes during the hemorrhage period and at 18, 24, 36, 48, and 72 hours during the survival period. Complete blood counts with differentiation were obtained using a cell counter (NDvia120 Hematology System, Siemens, Deerfield, Ill.).

[5] = tested on: IRI; details: various animal models; cited from earlier work
[6] = tested on: central lymphocytes (CD3+); assay: CD3 immunohistochemistry of mesenteric lymph node and spleen at necropsy (ACIS); type: in vivo, Yorkshire (Sus scrofa domestica) swine; details: FTY720 0.3 mg/kg; both mesenteric lymph node and spleen at necropsy
Protocol: Immunohistochemical detection of CD3 was performed on sections of formalin fixed, paraffin embedded blocks of swine lymph node and spleen. Antigen retrieval was performed using Trilogy (Cell Marque, Rocklin, Calif.) for 30 minutes. Rat, anti-human CD3, monoclonal antibody (AbD Serotec, Raleigh, N.C.) was used at a dilution of 1:50 and incubated overnight at 4 C. Biotinylated goat anti-rat IgG specific polyclonal antibody (BD Biosciences, San Jose, Calif.) was applied as a secondary antibody at a 1:100 dilution for 30 minutes at room temperature. The chromogen applied was 3, 3′ Diaminobenzidine (DAKO, Carpenteria, Calif.) for 10 minutes. The sections were counterstained with Hematoxylin (DAKO, Carpenteria, Calif.). External negative controls were processed identically as CD3 but the primary antibody was substituted with normal rat serum. […] An Automated Cellular Imaging System (ACIS) was used to quantify the CD3 immunohistochemistry staining. By using the ACIS system, CD3 immunohistochemical staining could be specifically quantitated by determining how much brown (positive CD3 immunohistochemical reaction) was in the image compared to the amount of blue (hematoxylin nuclear counterstain).
Tissue slides were deparaffinized using xylene followed by graded baths of ethanol. […] An Automated Cellular Imaging System (ACIS) was used to quantify the CD3 immunohistochemistry staining. […]

[7] = tested on: experimental hemorrhagic shock induced by porcine liver injury; assay: Liver injury hemorrhagic shock model: survival, blood loss, hemodynamics; type: in vivo, Yorkshire (Sus scrofa domestica) swine; details: FTY720 0.3 mg/kg 15 min after liver injury
Protocol: Male and female 3-12 month Yorkshire (Sus scrofa domestica) swine weighing 25-35 kg were acquired from ABI farms (Donsboro, Pa.). Feed was withheld 12 hours before surgery. Prior to surgery, animals were sedated and anesthesia induced with intramuscular ketamine hydrochloride (12-20 mg/kg of weight) and xylazine (2.2 mg/kg of weight) as well as atropine sulfate (0.05 mg/kg of weight) to decrease tracheal secretions. Mask ventilation with Isoflurane (5.0%) was used to facilitate endotracheal intubation. Pigs were ventilated (Ohmeda 7800 series ventilator, Datex, Madison, Wis.) at 12-15 breaths/min and tidal volume 10 mL/kg. Anesthesia was maintained with Isoflurane (1.5-2.5%) in 21-25% O2.
Following adequate anesthesia the right external and internal jugular veins and carotid artery were isolated. A 9Fr dual-lumen, tunneled Hickman catheter was placed in the external jugular vein for drug infusion and blood collection during the survival period. […] Rectal temperature was monitored continuously. […]
All animal groups underwent a standardized liver injury and resuscitation protocol. […] Bleeding was spontaneous and removed continually via suction and quantified by weight. […]
After a total of 2 hours, the pre-hospital phase was completed and hospital arrival was simulated. […] The abdomen was reopened, residual blood suctioned, sponges collected, and blood loss quantified by weight. […]

For `CCCCCCCCc1ccc(CCC(N)(CO)CO)cc1` [FTY720], the adhesion molecules expression [1] is listed as “no change”, the intragraft neutrophil infiltration [1] is listed as “reduced” and the renal function [1] is listed as “improved renal function”. The “lung tissue neutrophils vs control” value [2] was “significantly decreased”, the “BCL-2 transcript expression in liver vs control” value [3] was “up-regulated” and the “FAS transcript expression in liver vs control” value [3] was “down regulated”. The “HSP70 transcript expression in liver vs control” value [3] was “down-regulated”, the “INOS transcript expression in liver vs control” value [3] was “down-regulated” and the “NFκB transcript expression in liver vs control” value [3] was “down-regulated”. The “VCAM transcript expression in liver vs control” value [3] was “down-regulated”, the “peripheral neutrophil response vs control” value [4] was “attenuated” and the “effect on IRI” value [5] was “ameliorate IRI”. For the same molecule, the “central lymphocyte sequestration (CD3 staining) vs control” value [6] was “significant central lymphocyte sequestration”, the “reperfusion period survival vs control” value [7] was “statistically improved” and the “overall survival vs control” value ([7]; 72 hours) was “improved compared to control although not statistically significant”.
